The target in data set [1] is T1, rabbit muscle GPa (RMGPa) (Oryctolagus cuniculus, UniProt P00489).
T1 sequence (P00489 2-843 limits assumed): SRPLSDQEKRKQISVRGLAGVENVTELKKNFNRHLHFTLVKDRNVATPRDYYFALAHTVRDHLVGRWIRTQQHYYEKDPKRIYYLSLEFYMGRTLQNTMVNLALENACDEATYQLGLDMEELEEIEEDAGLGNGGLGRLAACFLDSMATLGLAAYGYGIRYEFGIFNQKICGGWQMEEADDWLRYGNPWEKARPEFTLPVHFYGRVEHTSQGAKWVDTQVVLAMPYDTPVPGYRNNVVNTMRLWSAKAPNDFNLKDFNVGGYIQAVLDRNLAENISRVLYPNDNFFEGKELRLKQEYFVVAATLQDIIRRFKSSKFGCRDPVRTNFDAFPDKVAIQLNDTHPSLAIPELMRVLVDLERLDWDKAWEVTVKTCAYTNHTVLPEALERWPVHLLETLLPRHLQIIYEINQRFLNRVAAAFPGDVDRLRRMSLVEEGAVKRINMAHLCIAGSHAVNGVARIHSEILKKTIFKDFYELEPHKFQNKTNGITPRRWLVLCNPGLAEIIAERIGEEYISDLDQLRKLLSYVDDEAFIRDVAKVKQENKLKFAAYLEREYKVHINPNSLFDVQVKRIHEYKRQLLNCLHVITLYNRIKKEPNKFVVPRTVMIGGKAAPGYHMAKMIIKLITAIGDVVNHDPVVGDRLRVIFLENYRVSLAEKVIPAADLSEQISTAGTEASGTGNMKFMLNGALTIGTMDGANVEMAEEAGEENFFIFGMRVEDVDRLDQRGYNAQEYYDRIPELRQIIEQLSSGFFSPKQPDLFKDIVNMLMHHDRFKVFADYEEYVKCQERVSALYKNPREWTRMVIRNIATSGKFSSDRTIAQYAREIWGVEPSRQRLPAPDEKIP
Briefly: RMGPa inhibition assay (phosphate release from glucose-1-phosphate). Particulars: mean ± S.D. of three determinations; NI means no inhibition. In kind it is biochemical.

The nature of data set [2]: Stability in mouse plasma. It is filed as in vitro ADME. Particulars: 2 μM, 37 °C, 120-min test. As for the experimental part: Frozen plasma from male C57 BL/6 mice was incubated for 5 min at 37 °C before the addition of the test compound. Then prepared 2 μM incubation sample, and aliquots of the incubation mixtures (100 μL) were taken at predetermined time points (10, 30, 60, 120 min) at 37 °C. After incubation, the mixtures was added 400 μL of 50% ACN/50% MeOH containing internal standard (IS, 200 ng/mL Tolbutamide and 20 ng/mL Buspirone) to each sample tube and then centrifuged at 13000 rpm for 8 min. Blank incubations in the absence of the test compound were also performed. The analyses of test compounds were performed by LC-MS/MS analysis.

Data set [3] is described as follows: Biodistribution and pharmacokinetics in plasma and liver after intravenous administration in mice. In kind it is in vivo. Particulars: 5 mg/kg intravenous; for AUC(0-t) / Cmax: iv. As for the experimental part: Based on the results of the potency and in vitro stability studies, conjugate 6 was selected for in vivo pharmacokinetic analysis following a single intravenous injection of 5 mg/kg in male C57 BL/6. Doses of PSN-357 intravenous were used as standard regimens for comparison.
Male C57 BL/6 mice (18–20 g, 5–6 weeks old) were provided by the Laboratory Animal Center of Academy of Military Medical Science of People’s Liberation Army, and were reared in standard rodent cages in animal house of Chengde Medical University, under the condition of a constant temperature of 24 °C (±2 °C) and a 12 h light/dark cycle. PSN-357 and conjugate 6 were injected through the caudal vein. For each sampling time point, three mice were treated with a single dose of either PSN-357 or conjugate 6 at 5 mg/kg in 10% DMSO/saline solutions. Blood and liver samples were taken at 0.0833, 0.25, 0.5, 1, 2, 4, 6 and 24 h following intravenous administration, and stored at −80 °C until analysis. Aliquots of all biological matrixes were deproteinized with a mixture of methanol/acetonitrile (1:1). The suspension was vortexed, mixed, and centrifuged at 13000 rpm for 10 min. The organic phase was injected into the LC-MS/MS system. PK calculations and statistical comparisons on PK data were performed according to a non-compartmental kinetic model with validated software (Kinetica™ version 5.1, Thermo Electron Corporation, USA).

Setting [4] is: male, C57 BL/6, mouse, liver tissue, read-out: MRT0-t, liver.
Setting [5] is: male, C57 BL/6, mouse, liver, 5 mg/kg, liver tissue, read-out: AUC0-t, liver.
Setting [6] is: male, C57 BL/6, mouse, plasma, read-out: MRT0-t, plasma.
[7] abbreviates: male, C57 BL/6, mouse, plasma, 5 mg/kg.
[8] abbreviates: male, C57 BL/6, mouse, plasma, 5 mg/kg, plasma, read-out: AUC0-t, plasma.

Structures are written as SMILES. Like-named read-outs stand apart in the source and are kept apart here.

As for `C[C@H](CCC(=O)N[C@@H](CC(=O)O)C(=O)OC1CCN(C(=O)[C@H](Cc2ccc(F)cc2)NC(=O)c2cc3cc(Cl)ncc3[nH]2)CC1)[C@H]1CC[C@H]2[C@@H]3[C@H](O)C[C@@H]4C[C@H](O)CC[C@]4(C)[C@H]3C[C@H](O)[C@]12C` [Conjugate 6], in data set [1], the IC50 is 31.2 ± 11.1 µM. The “degradation in mouse plasma” value in data set [2] is given as around 12%. For the same compound, in data set [3] (liver tissue), the “Cmax, liver” value worked out at 3094.55 ng/mL. Moreover, the MRT last in data set [3] (setting [4]) turned out to be 4.42 h; in data set [3] (setting [6]), 7.52 h. The AUC(0-t) came to 3980 ng·h/mL in data set [3] (setting [5]) and 1520 ng·h/mL in data set [3] (setting [8]). Moreover, the concentration at 240 min in data set [3] (male, C57 BL/6, mouse, plasma, 240 min, read-out: plasma concentration at 240 min after dosing) stood at 97 ng/mL. In addition, the Cmax in data set [3] (setting [7]) was determined as 726 ng/mL. Also, in data set [3] (plasma, 5 mg/kg), the “Cmax, plasma” value came to 726.2 ng/mL.
The compound `O=C(N[C@@H](Cc1ccc(F)cc1)C(=O)N1CCC(O)CC1)c1cc2cc(Cl)ncc2[nH]1` [PSN-357] came in with an IC50 in data set [1] of 0.42 ± 0.01 µM. In addition, the “stability in mouse plasma (in words)” value in data set [2] is given as “relatively stable”. In addition, in data set [3] (liver tissue), the “Cmax, liver” value is listed as 6677.85 ng/mL. In addition, in data set [3] (liver tissue, 5 mg/kg), the “AUC0-t, liver” value came to 9711.94 ng·h/mL. The Kp in data set [3] (male, C57 BL/6, mouse, liver and plasma, read-out: AUCliver/AUCplasma ratio) was found to be 10.1. For the same compound, the MRT last in data set [3] (setting [4]) is 4.52 h; in data set [3] (setting [6]), 3.18 h. The AUC(0-t) was 9710 ng·h/mL in data set [3] (setting [5]) and 965 ng·h/mL in data set [3] (setting [8]). The highest level in data set [3] (setting [7]) (Cmax) was 628 ng/mL. The “AUC0-t, plasma” value in data set [3] (plasma, 5 mg/kg) was found to be 965.16 ng·h/mL. Also, the “Cmax, plasma” value in data set [3] (plasma, 5 mg/kg) amounted to 628.35 ng/mL. In data set [3] (plasma, perhaps due to enterohepatic circulation), the “time of secondary peak in plasma” value was found to be 60 min.
